Laboratory results from patent US20150266857A1, “NOVEL 3-INDOL SUBSTITUTED DERIVATIVES, PHARMACEUTICAL COMPOSITIONS AND METHODS FOR USE” (iTeos Therapeutics, priority 2014, published 2015).

molecular target: T1, human glioblastoma A172 cells, naturally expressing hTDO2 (Homo sapiens, UniProt P48775); assay: Cellular assay for TDO2 activity, A172 cells; type: cell-based; details: overnight incubation, kynurenine in supernatant
T1 construct: human glioblastoma A172 cells, naturally expressing hTDO2; endogenous in cells; host or cells: human glioblastoma A172 cells (ATCC CRL-1620)
T1 sequence (P48775 whole entry): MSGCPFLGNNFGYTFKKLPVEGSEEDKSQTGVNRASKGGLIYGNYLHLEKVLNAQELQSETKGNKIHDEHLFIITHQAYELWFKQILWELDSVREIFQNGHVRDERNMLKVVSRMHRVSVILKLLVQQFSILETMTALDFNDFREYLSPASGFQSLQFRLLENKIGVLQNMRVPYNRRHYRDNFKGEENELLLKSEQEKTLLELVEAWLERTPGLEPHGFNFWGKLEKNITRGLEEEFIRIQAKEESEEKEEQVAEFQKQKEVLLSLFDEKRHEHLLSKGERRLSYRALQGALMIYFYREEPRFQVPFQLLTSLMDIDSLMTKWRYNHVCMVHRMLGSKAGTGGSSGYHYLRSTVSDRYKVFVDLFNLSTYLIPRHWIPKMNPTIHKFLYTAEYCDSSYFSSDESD
Protocol: The compounds of formula I inhibit the activity of human TDO2 in cells that constitutively express TDO2, such as A172 cells. A172 is a cell line derived from human brain glioblastoma cells. The cells are available from the American Type Culture Collection (ATCC®) as CRL-1620™
The assay (adapted from Pilotte L et al., Proc Natl Acad Sci USA, 2012, 109(7), 2497-502) was performed in 96-well flat bottom plates seeded with human glioblastoma A172 cells, naturally expressing hTDO2 (prepared as described in Tilman et al., Mol Cancer, 2007, 17(6), 80), at a concentration of 1.25×10^4 cells/well in a final volume of 200 μL. To determine TDO, the cells were incubated overnight at 37° C. at 5% CO2 in IMDM (Invitrogen) supplemented with 2% FBS and 2% penicillin/streptomycin in the presence of the compounds of the present invention, at different concentrations.
The plates were then centrifuged 5 min at 1000 rpm, and 100 μL of the supernatant were collected in a conical plate, 30 uL of TCA 30% were added and a further centrifugated at 3000×g for 10 minutes. 100 μL of the supernatant were collected in a flat bottomed plate and 100 μL of 2% (w/v) 4-(dimethylamino)-benzaldehyde in acetic acid and incubated for 5 min at room temperature. Kynurenine concentrations were determined by measuring the absorbance at 480 nm. A standard curve was made with pure kynurenine. The TDO activity was measured as described above using ten serial concentrations of the compounds of the present invention. Data were fitted using the Prism™ software (GraphPad Software, Inc.) using standard parameters.

| Structure (SMILES) | IC50 [nM] |
| --- | --- |
| O=c1oc2cc(-c3c[nH]c4cc(F)ccc34)ccc2n1C1CCNCC1 [Compound 136, 6-(6-fluoro-1H-indol-3-yl)-3-(piperidin-4-yl)benzo[d]oxazol-2(3H)-one] | 320 |
| CN1CCC(Cc2nc3ccc(-c4c[nH]c5cc(F)ccc45)cc3o2)CC1 [Compound 125, 6-(6-fluoro-1H-indol-3-yl)-2-((1-methylpiperidin-4-yl)methyl)benzo[d]oxazole] | 148 |
| CS(=O)(=O)N1CCN(CCc2nc3ccc(-c4c[nH]c5cc(F)ccc45)cc3o2)CC1 [Compound 120, 6-(6-fluoro-1H-indol-3-yl)-2-(2-(4-(methylsulfonyl)piperazin-1-yl)ethyl)benzo[d]oxazole] | 443 |
| Fc1ccc2c(-c3ccc4oc(CN5CCOCC5)nc4c3)c[nH]c2c1 [Compound 63, 5-(6-fluoro-1H-indol-3-yl)-2-(morpholinomethyl)benzo[d]oxazole] | 597 |
| CN1C(=O)c2cc(-c3c[nH]c4cc(F)ccc34)ccc2S1(=O)=O [Compound 138, 5-(6-fluoro-H-indol-3-yl)-2-methylbenzo[d]isothiazol-3(2H)-one 1,1-dioxide] | 3680 |
| Fc1ccc2c(-c3ccc4ccsc4c3)c[nH]c2c1 [Compound 79, 3-(benzo[b]thiophen-6-yl)-6-fluoro-1H-indole] | 802 |
| O=C1NC(=O)c2cc(-c3c[nH]c4cc(F)ccc34)ccc21 [Compound 132, 5-(6-fluoro-1H-indol-3-yl)isoindoline-1,3-dione] | 197 |
| O=C(CCn1ncc2cc(-c3c[nH]c4cc(F)ccc34)ccc21)N1CCOCC1 [Compound 86, 3-(5-(6-fluoro-1H-indol-3-yl)-1H-indazol-1-yl)-1-morpholinopropan-1-one] | 646 |
| Fc1ccc2c(-c3ccc4nc(C5CCNCC5)oc4c3)c[nH]c2c1 [Compound 55, 6-(6-fluoro-1H-indol-3-yl)-2-(piperidin-4-yl)benzo[d]oxazole] | 171 |
| Fc1ccc2c(-c3ccc4nc(CCN5CC6(CNC6)C5)oc4c3)c[nH]c2c1 [Compound 143, 2-(2-(2,6-diazaspiro[3.3]heptan-2-yl)ethyl)-6-(6-fluoro-1H-indol-3-yl)benzo[d]oxazole] | 610 |
| NC(=O)CCn1cnc2cc(-c3c[nH]c4cc(F)ccc34)ccc21 [Compound 94, 3-(5-(6-fluoro-1H-indol-3-yl)-1H-benzo[d]imidazol-1-yl)propanamide] | 4640 |
| NCc1nc2cc(-c3c[nH]c4cc(F)ccc34)ccc2o1 [Compound 81, (5-(6-fluoro-1H-indol-3-yl)benzo[d]oxazol-2-yl)methanamine] | 1620 |
| Fc1ccc2c(-c3ccc4nc(S)oc4c3)c[nH]c2c1 [Compound 112, 6-(6-fluoro-1H-indol-3-yl)benzo[d]oxazole-2-thiol] | 979 |
| C[C@H]1CN(CCc2nc3ccc(-c4c[nH]c5cc(F)ccc45)cc3o2)C[C@H](C)N1 [Compound 144, (−)-2-(2-((3S,5S)-3,5-dimethylpiperazin-1-yl)ethyl)-6-(6-fluoro-1H-indol-3-yl)benzo[d]oxazole] | 460 |
| C[C@@H]1CN(CCc2nc3ccc(-c4c[nH]c5cc(F)ccc45)cc3o2)C[C@H](C)N1 [Compound 139, 2-(2-(cis-3,5-dimethylpiperazin-1-yl)ethyl)-6-(6-fluoro-1H-indol-3-yl)benzo[d]oxazole] | 383 |
| c1ccc2c(-c3ccc4ocnc4c3)c[nH]c2c1 [Compound 118, 5-(1H-indol-3-yl)benzo[d]oxazole] | 1530 |
| O=S1(=O)NCc2cc(-c3c[nH]c4cc(F)ccc34)ccc21 [Compound 135, 5-(6-fluoro-1H-indol-3-yl)-2,3-dihydrobenzo[d]isothiazole 1,1-dioxide] | 74 |
| c1ccc2c(-c3ccc4ncoc4c3)c[nH]c2c1 [Compound 109, 6-(1H-indol-3-yl)benzo[d]oxazole] | 446 |
| NC(=O)CCc1nc2ccc(-c3c[nH]c4cc(F)ccc34)cc2o1 [Compound 83, 3-(6-(6-fluoro-1H-indol-3-yl)benzo[d]oxazol-2-yl)propanamide] | 154 |
| CS(=O)(=O)NC1CCN(CCS(=O)(=O)NCc2nc3ccc(-c4c[nH]c5cc(F)ccc45)cc3o2)CC1 [Compound 126, N-((6-(6-fluoro-1H-indol-3-yl)benzo[d]oxazol-2-yl)methyl)-2-(4-(methylsulfonamido)piperidin-1-yl)ethanesulfonamide] | 826 |
| c1ccc2c(-c3ccc4[nH]ncc4c3)c[nH]c2c1 [Compound 104, 5-(1H-indol-3-yl)-1H-indazole] | 464 |
| O=C1NC(=O)C(Cc2nc3ccc(-c4c[nH]c5cc(F)ccc45)cc3o2)N1 (stereo not drawn) [Compound 129, 5-((6-(6-fluoro-1H-indol-3-yl)benzo[d]oxazol-2-yl)methyl)imidazolidine-2,4-dione] | 225 |
| O=C1Cc2ccc(-c3c[nH]c4cc(F)ccc34)cc2N1 [Compound 92, 6-(6-fluoro-1H-indol-3-yl)indolin-2-one] | 508 |
| NC(=O)Cn1cnc2ccc(-c3c[nH]c4cc(F)ccc34)cc21 [Compound 84, 2-(6-(6-fluoro-1H-indol-3-yl)-1H-benzo[d]imidazol-1-yl)acetamide] | 1020 |

More lines, in order of falling IC50, values ahead:

| IC50 [nM] | Structure (SMILES) |
| --- | --- |
| 19000 | Clc1ccc2c(-c3ccc4ocnc4c3)c[nH]c2c1 [Compound 111, 5-(6-chloro-1H-indol-3-yl)benzo[d]oxazole] |
| 3770 | CS(=O)(=O)Nc1nc2ccc(-c3c[nH]c4cc(F)ccc34)cc2o1 [Compound 58, N-(6-(6-fluoro-1H-indol-3-yl)benzo[d]oxazol-2-yl)methanesulfonamide] |
| 2380 | NC(=O)Cn1c(=O)oc2cc(-c3c[nH]c4ccc(F)cc34)ccc21 [Compound 131, 2-(6-(5-fluoro-1H-indol-3-yl)-2-oxobenzo[d]oxazol-3(2H)-yl)acetamide] |
| 1770 | Clc1ccc2[nH]cc(-c3ccc4ocnc4c3)c2c1 [Compound 121, 5-(5-chloro-1H-indol-3-yl)benzo[d]oxazole] |
| 1150 | NC(=O)CCn1cnc2ccc(-c3c[nH]c4cc(F)ccc34)cc21 [Compound 93, 3-(6-(6-fluoro-1H-indol-3-yl)-1H-benzo[d]imidazol-1-yl)propanamide] |
| 842 | CS(=O)(=O)CCc1nc2cc(-c3c[nH]c4cc(F)ccc34)ccc2o1 [Compound 80, 5-(6-fluoro-1H-indol-3-yl)-2-(2-(methylsulfonyl)ethyl)benzo[d]oxazole] |
| 771 | O=S1(=O)NCc2ccc(-c3c[nH]c4cc(F)ccc34)cc21 [Compound 134] |
| 602 | Fc1ccc2c(-c3ccc4occc4c3)c[nH]c2c1 [Compound 82, 3-(benzofuran-5-yl)-6-fluoro-1H-indole] |
| 520 | Fc1ccc2c(-c3ccc4ccoc4c3)c[nH]c2c1 [Compound 146, 3-(benzofuran-6-yl)-6-fluoro-1H-indole] |
| 480 | C[C@@H]1CN(CCc2nc3ccc(-c4c[nH]c5cc(F)ccc45)cc3o2)C[C@@H](C)N1 [Compound 142, (+)-2-(2-((3R,5R)-3,5-dimethylpiperazin-1-yl)ethyl)-6-(6-fluoro-1H-indol-3-yl)benzo[d]oxazole] |
| 351 | COCCS(=O)(=O)NCc1nc2ccc(-c3c[nH]c4cc(F)ccc34)cc2o1 [Compound 99, N-((6-(6-fluoro-1H-indol-3-yl)benzo[d]oxazol-2-yl)methyl)-2-methoxyethanesulfonamide] |
| 349 | CN1CCC[C@H]1C(=O)NCc1nc2ccc(-c3c[nH]c4cc(F)ccc34)cc2o1 [Compound 115, (S)—N-((6-(6-fluoro-1H-indol-3-yl)benzo[d]oxazol-2-yl)methyl)-1-methylpyrrolidine-2-carboxamide] |
| 292 | Fc1ccc2c(-c3ccc4c(c3)CNC4)c[nH]c2c1 [Compound 133, 6-fluoro-3-(isoindolin-5-yl)-1H-indole] |
| 284 | Fc1ccc2c(-c3ccc4nc(CC5CCNCC5)oc4c3)c[nH]c2c1 [Compound 113, 6-(6-fluoro-1H-indol-3-yl)-2-(piperidin-4-ylmethyl)benzo[d]oxazole] |
| 278 | NS(=O)(=O)NCc1nc2ccc(-c3c[nH]c4cc(F)ccc34)cc2o1 [Compound 117, Amino{[6-(6-fluoroindol-3-yl)benzoxazol-2-yl]methyl}sulfonamide] |
| 240 | CS(=O)(=O)CCNC(=O)CCn1ncc2cc(-c3c[nH]c4cc(F)ccc34)ccc21 [Compound 90, 3-(5-(6-fluoro-1H-indol-3-yl)-1H-indazol-1-yl)-N-(2-(methylsulfonyl)ethyl)propanamide] |
| 205 | O=C(CCn1ncc2cc(-c3c[nH]c4cc(F)ccc34)ccc21)NCCO [Compound 89, 3-(5-(6-fluoro-1H-indol-3-yl)-1H-indazol-1-yl)-N-(2-hydroxyethyl)propanamide] |
| 170 | CN(C)CCNC(=O)CCn1ncc2cc(-c3c[nH]c4cc(F)ccc34)ccc21 [Compound 88, N-(2-(dimethylamino)ethyl)-3-(5-(6-fluoro-H-indol-3-yl)-1H-indazol-1-yl)propanamide] |
